Measurements published in publication PMC9021288 (Nature Communications, 2022).
Several values for one entry are separate records, joined by “and”; a condition that tells them apart may be missing. Identical values can stand only once. Like-named read-outs stand apart in the source and are kept apart here.

Key:
[1] = tested on: P. falciparum NF54 asexual blood-stage parasites; assay: 72-h asexual blood-stage replication assay (SYBR Green); type: cell-based, Plasmodium falciparum; set-up: key to asexual blood stages growth, dose-response: % growth; DMSO control = 100%, DHA/epoxomicin-treated = no growth
Experimental: Replication assays were performed using a SYBR Green method as described previously. Briefly, asynchronous parasites were diluted to 0.83% parasitemia, 3% hematocrit in 30 µl medium, and added to 30 µl of diluted compounds in medium (0.1% DMSO final concentration) in black 384-wells plates. After a 72-h incubation, 30 µl of SYBR Green diluted in lysis buffer was added according to the manufacturer’s protocol (Life Technologies). Fluorescence intensity was measured on a BioTek Synergy 2 Plate Reader after 1-h incubation and was normalized to a DMSO control (100% growth) and DHA- or epoxomicin-treatment (no growth). […] Parasite survival was assessed by flow cytometry on an Accuri C6 (BD Biosciences) with BD C6 Plus software using SYBR Green and MitoTracker Deep Red FM (Life Technologies) as nuclear stain and vital dye, respectively, and data were analyzed using FlowJo (10.5.0). […] Luminescence was measured after 72 h using the Renilla-Glo(R) Luciferase Assay System (Promega E2750) and the GlomAX® Discover Multimode Microplate Reader (Promega). The luminescence values were normalized to DMSO vehicle (100% growth) and 200 nM chloroquine-treated (no growth) samples as controls.
Dose-response assays were analyzed by a nonlinear regression using a four-parameter model and the least squares method to find the best fit. One-way Analysis of variance (ANOVA) was performed using the Bonferroni’s Multiple Comparison Test. For the majority of experiments, 2-4 biological replicates were performed. Typically, 2 replicates were performed for screening activities, and a minimum of 3 replicates are performed for other experiments unless stated otherwise.

Crystal screening (XRPD) = type: physicochemical; settings: 36 conditions
Experimental: Crystal screening for each further characterized pantothenamide was performed by a commercial service (Crystal Pharmatech Co., Ltd.) under 36 conditions using a variety of crystallization methods, including liquid vapor diffusion, slow evaporation, slurry conversion and salt/co-crystal formation and solvents. X-ray power diffraction (XRPD) patterns were collected by Bruker X-ray powder diffractometers.

[2] = tested on: P. falciparum NF54-HGL gametocytes; assay: Gametocyte viability assay (72 h, luminescence); type: cell-based, Plasmodium falciparum; settings: for IC50: per replicate experiment, read-out: IC50, sexual blood stages; for gametocyte viability, dose-response: NF54-HGL
Experimental: Gametocyte viability assays on NF54-HGL parasites were performed using an adapted high-throughput protocol as previously described[15],[64]. In short, asexual blood-stage parasite cultures were set up at 1% parasitemia in a semi-automated shaker system at 5% hematocrit. From day four until day eight or nine, parasites were treated with 50 mM N-acetyl glucosamine to eliminate all asexual blood-stage parasites. Subsequently, gametocytes were isolated by a Percoll density gradient centrifugation. At day 11, gametocytes were seeded (5,000 per well) in 30 µl in white 384-well plates containing 30 µl of compounds diluted in medium (0.1% DMSO). After a 72-h incubation, 30 µl of ONE-Glo reagent (Promega) was added according to manufacturer’s protocol and luminescence was quantified using the BioTek Synergy 2 Plate reader. Values were normalized to DMSO- and epoxomicin or dihydroartemisinin-treated controls.

[3] = tested on: P. falciparum Pf3D7^0087/N9; assay: Single dose in vivo efficacy in humanized NSG mice; set-up: species or system Plasmodium falciparum; settings: for parasitemia outcome: single 50 mg/kg oral gavage on day 4, over three days
Experimental: The effect of pantothenamides on P. falciparum Pf3D7^0087/N9 [66] in vivo was assessed in female NSG mice (NODscidIL2Rγ^null) at the Swiss Tropical and Public Health Institute (Basel, Switzerland) as described previously (Supplementary Table 30)[15],[67]. Briefly, humanized mice were engrafted daily with human erythrocyte suspensions from days -11 to day 6. […] On day 4, groups of n = 2 mice were treated with a single dose pantothenamides or chloroquine (50 mg/kg) by oral gavage. […] Serial dilutions were prepared in the same solvent to concentrations 50 times higher than the corresponding CAL and QC concentrations. The concentrations were calculated under consideration of purity and salt factor. The spiking of the CAL and QC sample were performed at room temperature.

[4] = asexual blood stages NF54 parasites, read-out: IC50
[5] = per replicate experiment, read-out: IC50, asexual blood stages
[6] = day 5 post infection, 50 mg/kg p.o. on day 4, per mouse, 50 mg/kg
[7] = day 6 post infection, per mouse
[8] = day 7 post infection, per mouse

C[C@@H](CNC(=O)[C@H](O)C(C)(C)CO)NC(=O)c1cc(F)c(F)cc1F [MMV693183]
in vitro-determined IC99 [1]: 36.1 nM | asexual blood stages growth, dose-response ([1]; Log concentration (M) -8.5): 38.5 and 30.4 and 47.25 and 30.7 | asexual blood stages growth, dose-response ([1]; Log concentration (M) -9): 74.05 and 74.55 and 77.05 and 67.5 | asexual blood stages growth, dose-response ([1]; Log concentration (M) -9.5): 92.6 and 74.65 and 93.65 and 69.75 | asexual blood stages growth, dose-response ([1]; Log concentration (M) -10): 93.45 and 77.05 and 101.75 and 92 | IC50 [1, 4]: 2.8 nM | IC50 [1, 5]: 2.37 nM and 2.81 nM and 2.66 nM and 2.15 nM | Crystalline (Crystal screening (XRPD)): Yes | Sexual blood stages viability, dose-response ([2]; Log concentration (M) -7.5): 36.75 and 49.45 and 51.8 | Sexual blood stages viability, dose-response ([2]; Log concentration (M) -8): 69.2 and 83.95 and 95.65 | Sexual blood stages viability, dose-response ([2]; Log concentration (M) -8.5): 82.4 and 91.1 and 100.8 | Sexual blood stages viability, dose-response ([2]; Log concentration (M) -9): 98.1 and 92.5 and 103.2 | Sexual blood stages viability, dose-response ([2]; Log concentration (M) -9.5): 107.25 and 92.05 and 100.45 | Sexual blood stages viability, dose-response ([2]; Log concentration (M) -10): 92.05 and 87.2 and 94.15 | IC50 [2]: 17.8 nM and 36 nM and 36.8 nM | Parasitemia [3, 6]: 0.2 and 0.29 | Parasitemia [3, 7]: 0.03 and 0.02 | Parasitemia [3, 8]: 0 | parasitemia outcome [3]: reduced parasitemias below detectable levels

CC(C)(CO)[C@@H](O)C(=O)NCCNC(=O)c1cc(C#N)ccc1F [MMV976394]
asexual blood stages growth, dose-response ([1]; Log concentration (M) -6): 3.4 and 4.05 | asexual blood stages growth, dose-response ([1]; Log concentration (M) -6.5): 2.2 and 3.95 | asexual blood stages growth, dose-response ([1]; Log concentration (M) -8.5): 87.25 and 70.5 | asexual blood stages growth, dose-response ([1]; Log concentration (M) -9): 94.8 and 82.75 | asexual blood stages growth, dose-response ([1]; Log concentration (M) -9.5): 101.5 and 89.75 | asexual blood stages growth, dose-response ([1]; Log concentration (M) -10): 97.1 and 96.9 | IC50 [1, 5]: 25 nM and 6.26 nM | Crystalline (Crystal screening (XRPD)): No | Sexual blood stages viability, dose-response ([2]; Log concentration (M) -6): 82.2 and 80.4 | Sexual blood stages viability, dose-response ([2]; Log concentration (M) -6.5): 89.6 and 82.4 | Sexual blood stages viability, dose-response ([2]; Log concentration (M) -7): 87.4 and 85.95 | Sexual blood stages viability, dose-response ([2]; Log concentration (M) -7.5): 108.15 and 96.65 | Sexual blood stages viability, dose-response ([2]; Log concentration (M) -8): 91.85 and 97.6 | Sexual blood stages viability, dose-response ([2]; Log concentration (M) -8.5): 92.6 and 88 | Sexual blood stages viability, dose-response ([2]; Log concentration (M) -9): 87.75 and 103.75 | Sexual blood stages viability, dose-response ([2]; Log concentration (M) -9.5): 90 and 115.4 | Sexual blood stages viability, dose-response ([2]; Log concentration (M) -10): 90 and 95.6 | Parasitemia [3, 6]: 0.56 and 0.41 | Parasitemia [3, 7]: 0.32 | Parasitemia [3, 8]: 0.17 | parasitemia outcome [3]: not fully cleared

C[C@@H](CNC(=O)[C@H](O)C(C)(C)CO)NC(=O)c1cccc(F)c1 (stereo in doubt) [MMV1542001]
asexual blood stages growth, dose-response ([1]; Log concentration (M) -8.5): 33 and 19.45 | asexual blood stages growth, dose-response ([1]; Log concentration (M) -9): 66.7 and 78.5 | asexual blood stages growth, dose-response ([1]; Log concentration (M) -9.5): 89.15 and 95.45 | asexual blood stages growth, dose-response ([1]; Log concentration (M) -10): 79.7 and 90.9 | IC50 [1, 4]: 2.4 nM | IC50 [1, 5]: 2.45 nM and 1.87 nM | Crystalline (Crystal screening (XRPD)): No | Sexual blood stages viability, dose-response ([2]; Log concentration (M) -9): 60.65 and 74.3 | Sexual blood stages viability, dose-response ([2]; Log concentration (M) -9.5): 76.05 and 100.7 | Sexual blood stages viability, dose-response ([2]; Log concentration (M) -10): 85.65 and 89 | IC50 [2]: 1.98 nM and 9.93 nM | Parasitemia [3, 6]: 0.4 and 0.31 | Parasitemia [3, 7]: 0.06 and 0.01 | Parasitemia [3, 8]: 0 | parasitemia outcome [3]: reduced parasitemias below detectable levels

CC(CNC(=O)C(O)C(C)(C)CO)NC(=O)CCc1ccccc1F (stereo in doubt) [MMV689258]
IC50 [1, 4]: 7 nM | Crystalline (Crystal screening (XRPD)): Yes | gametocyte viability, dose-response ([2]; Log concentration (M) -8): 82.05 and 46 and 45.3 | gametocyte viability, dose-response ([2]; Log concentration (M) -8.5): 95.95 and 82.9 and 64.1 | gametocyte viability, dose-response ([2]; Log concentration (M) -9): 97.75 and 94.05 and 92.15 | gametocyte viability, dose-response ([2]; Log concentration (M) -9.5): 104.7 and 93.15 and 94.35 | gametocyte viability, dose-response ([2]; Log concentration (M) -10): 106.25 and 112.55 and 90.95 | Parasitemia [3, 6]: 0.26 and 0.2 | Parasitemia [3, 7]: 0.15 and 0.1 | Parasitemia [3, 8]: 0.22 and 0.12 | parasitemia outcome [3]: not fully cleared

C[C@@H](CNC(=O)[C@H](O)C(C)(C)CO)NC(=O)c1cccc(C#N)c1 (stereo in doubt) [MMV884962]
asexual blood stages growth, dose-response ([1]; Log concentration (M) -7): 1.15 and 1.45 | asexual blood stages growth, dose-response ([1]; Log concentration (M) -7.5): 11.25 and 6.6 | asexual blood stages growth, dose-response ([1]; Log concentration (M) -8): 55.2 and 32.3 | asexual blood stages growth, dose-response ([1]; Log concentration (M) -8.5): 80.1 and 73.8 | asexual blood stages growth, dose-response ([1]; Log concentration (M) -9): 84.85 and 73.05 | asexual blood stages growth, dose-response ([1]; Log concentration (M) -9.5): 95.6 and 92.6 | asexual blood stages growth, dose-response ([1]; Log concentration (M) -10): 93.15 and 89.75 | IC50 [1, 4]: 7.4 nM | IC50 [1, 5]: 12.1 nM and 7.41 nM | Crystalline (Crystal screening (XRPD)): No | Sexual blood stages viability, dose-response ([2]; Log concentration (M) -9): 92.55 and 54.1 | Sexual blood stages viability, dose-response ([2]; Log concentration (M) -9.5): 110.8 and 104.4 | Sexual blood stages viability, dose-response ([2]; Log concentration (M) -10): 97.15 and 70.3 | IC50 [2]: 5.95 nM and 2.17 nM | Parasitemia [3, 6]: 0.31 and 0.28 | Parasitemia [3, 7]: 0.05 | Parasitemia [3, 8]: 0 | parasitemia outcome [3]: reduced parasitemias below detectable levels
